Assay results reported in patent US7795305B2, “CDDO-compounds and combination therapies thereof” (Board of Regents, The University of Texas System, priority 2000, dated 2010).

Tests used:
[1] = system: human leukemic KBM-3 cells; experiment: Engraftment of leukemic cells in NOD/Scid mice, FISH; assay type: in vivo; settings: 6 mg/kg/day IP for 10 days
Protocol: The effect of CDDO on engraftment of leukemic cells was further tested in NOD/Scid mice transplanted with 1×10^6 human leukemic KBM-3 cells. Eleven mice were treated with CDDO at 6 mg/kg/day IP (divided in 3 injections per day) for 10 days; a control set of 9 mice received vehicle alone. The engraftment of human leukemic cells was determined by FISH based on the known karyotype of the cells (trisomy 8) at 5 weeks following transplantation. While 10.6±2.7% cells were leukemic in the bone marrow of the control group (range 0.12-21%), only 3±2.4% leukemic cells were found in CDDO-treated mice (range 0.04-12.5%, p=0.016). 5/11 CDDO-treated animals but only ⅛ controls had <1% leukemic cells by FISH analysis.

AML CD34+ cells = experiment: Fas expression in primary AML CD34+ cells; assay type: cell-based, human
Protocol: Immunophenotyping. The PE-conjugated anti-CD11b, FITC-conjugated anti-CD14 monoclonal antibody (mAb) (Becton Dickinson) and PE-conjugated anti-CD95 mAb (PharMingen) were used at a 1/10 dilution. The percentage of positive cells was calculated by subtracting the percentage of cells with a fluorescence intensity greater than the set marker using the isotype control (background) from the percentage of cells with a fluorescence intensity greater than the same marker using the specific antibody.
Mechanisms of CDDO-induced apoptosis in leukemia cell lines and in primary AML samples were also determined. The involvement of the death receptor/Fas pathway was studied in NB4 cells. Treatment with 0.5 μM CDDO induced cell surface Fas/CD95 expression at 48 hours (MFI 34.8 vs 24.8 in DMSO-treated cells and 26 in untreated control). At this concentration, 22.3% of cells were annexin V positive compared with 11.4% in DMSO-controls. At 1 μM, 56.3% of cells were apoptotic. Similarly, 1 μM CDDO induced Fas expression in 7/12 AML CD34+ cells (MFI, 22.3±3.5 in DMSO-controls, 40±4.3 in CDDO-treated CD34+ cells, p<0.01).

ERK1/2 in U937 cells = experiment: ERK1/2 phosphorylation, Western blot; assay type: cell-based, human; settings: 1 μM, 3 hours
Protocol: Western blot analysis. An equal amount of protein lysate was placed on 12% SDS-PAGE for 2 hours at 100 volts, followed by transfer of the protein to a Nytran membrane (S&S, Heween, N.H.) and immunoblotting. Polyclonal rabbit antibodies to Bcl-2, Bcl-XL, and Bax were kindly provided by Dr. J. C. Reed. Antibodies against PARP was obtained from PharMingen (San Diego, Calif.), DFF-45 from Oncogene (Cambridge, Mass.), XIAP from Transduction Laboratories (Lexington, Ky.), caspase-3 from PharMingen, phospho-specific anti-pERK1/2 antibodies from Calbiochem (San Diego, Calif.). A specific antibody recognizing only the p20-processed caspase-3 band was provided by Idun Pharmaceutical, Inc. (La Jolla, Calif.).
Since PKC-α and the MAP kinases ERK1 (p44) and ERK2 (p42) have been identified as physiologic Bcl-2 kinases, studies were performed to assess their activation status. […] However, both ERK1 and ERK2 were prominently detected in the mitochondrial membranes. […] Treatment of K562 cells with 1 μM of CDDO-Me in vivo abrogated ERK kinase activity similar to specific MEK inhibitor […]. No effect on Akt activity was seen. These findings indicate that CDDO-Me induces apoptosis by inhibition of ERK1/2 and Bcl-2 phosphorylation.

HL-60 cells = experiment: Annexin V staining; assay type: cell-based, human; settings: 0.1 μM CDDO-Me alone or combined with 1 μM ATRA
Protocol: Annexin V staining. Cells were washed in phosphate-buffered saline (PBS) and resuspended in 100 μl of binding buffer containing Annexin V (Roche Diagnostic Corporation, Indianapolis, Ind.). Cells were analyzed by flow cytometry after the addition of propidium iodide (PI). Annexin V binds to those cells that express phosphatidylserine on the outer layer of the cell membrane, and PI stains the cellular DNA of those cells with a compromised cell membrane. This allows for live cells (unstained with either fluorochrome) to be discriminated from apoptotic cells (stained only with annexin V) and necrotic cells (stained with both annexin and PI).
CDDO-Me. CDDO-Me and retinoids synergistically decrease viability and induce differentiation in leukemic cell lines. The inventors tested the Effect of CDDO-Me/ATRA combinations in different leukemic cell lines. […] This was confirmed in HL-60 cells by annexin V staining (17.9 vs 30% positive cells when 0.1 μM of CDDO-Me was combined with 1 μM ATRA). In primary AML, ATRA enhanced CDDO-Me-induced apoptosis in 3/8 samples tested (an example of subG1 flow cytometry in AML sample shown in FIG. 32).

SMILES | animals with <1% leukemic cells by FISH [1] | leukemic cells in the bone marrow, range [1] | leukemic cells in the bone marrow (FISH) ([1]; 5 weeks after transplantation (control 10.6±2.7%)) | AML samples with induced Fas expression in CD34+ cells (AML CD34+ cells; 1 μM) | Fas expression, MFI (AML CD34+ cells; 1 μM (22.3±3.5 in DMSO-controls)) | activation of ERK1/2 (ERK1/2 phosphorylation) (ERK1/2 in U937 cells) | annexin V positive cells (HL-60 cells)
CC1(C)CCC2(C(=O)O)CCC3(C)C(C(=O)C=C4C5(C)C=C(C#N)C(=O)C(C)(C)C5CCC43C)C2C1 (stereo not shown) [CDDO, 2-cyano-3,12-dioxoolen-1,9-dien-28-oic acid] | 5/11 | 0.04-12.5% | 3±2.4% | 7/12 | 40±4.3 |  | 
COC(=O)[C@]12CCC(C)(C)C[C@H]1[C@H]1C(=O)C=C3[C@@]4(C)C=C(C#N)C(=O)C(C)(C)[C@@H]4CC[C@@]3(C)[C@]1(C)CC2 [CDDO-Me] |  |  |  |  |  | blocked the activation of ERK1/2 | 17.9%
